The values below come from patent publication US8877707B2, “Inhibitors of HCV NS5A” (Presidio Pharmaceuticals, Inc., priority 2010, dated 2014).

A value given as a limit tells only on which side of the number the result lay.

The assay concerns HCV genotype 1b replicon in Huh 7 cells. The assay is described as follows: HCV replicon assay (1b_Huh-Luc/Neo-ET cell line, luciferase readout). Type of assay: cell-based. Conditions: Hepatitis C virus; Table 1; genotype 1b replicon, Huh 7 cells, 72 h, luciferase; read-out: Inhibition of HCV genotype 1b. The method, boiled down:
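Huh 7 cells carrying a bicistronic genotype 1b luciferase replicon were treated with compound in triplicate the day after plating and incubated 72 h. Luciferase activity expressed as % of untreated control; EC50 from a four-parameter logistic fit, repeated several times.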
(In antiviral work, replicon cells carry a viral genome segment that copies itself.)
Take `COC(=O)N[C@H](C(=O)N1CCC[C@H]1c1ncc(-c2ccc(-c3cc4ccc(-c5cnc([C@@H]6CCCN6C(=O)[C@H](NC(=O)OC)c6ccccc6)[nH]5)cc4cn3)c(F)c2)[nH]1)C(C)C` [compound 167]: the EC50 is less than 1 nM.

Regarding `COC(=O)N[C@H](C(=O)N1CCOC[C@H]1c1ncc(-c2ccc3cc(-c4ccc(-c5cnc([C@@H]6COCCN6C(=O)[C@H](NC(=O)OC)c6ccccc6)[nH]5)cc4)ccc3c2)[nH]1)C(C)C` [compound 168], the EC50 is less than 1 nM.

As to `COC(=O)N[C@H](C(=O)N1CCC[C@H]1c1ncc(-c2ccc3cc(-c4ccc(-c5cnc([C@@H]6COCCN6C(=O)[C@H](NC(=O)OC)c6ccccc6)[nH]5)cc4)ccc3c2)[nH]1)C1CCOCC1` [compound 169], the EC50 was less than 1 nM.

`COC(=O)N[C@H](C(=O)N1CCOC[C@H]1c1ncc(-c2ccc(-c3ccc4cc(-c5cnc([C@@H]6COCCN6C(=O)[C@@H](NC(=O)OC)C(C)C)[nH]5)ccc4c3)cc2)[nH]1)C(C)C` [compound 170]: the EC50 is less than 1 nM.

`CCC(CC)[C@H](NC(=O)OC)C(=O)N1CCC[C@H]1c1ncc(-c2ccc(-c3ccc4cc(-c5cnc([C@@H]6CCCN6C(=O)[C@@H](NC(=O)OC)C(CC)CC)[nH]5)ccc4c3)cc2)[nH]1` [compound 171]: the EC50 was less than 1 nM.

`COC(=O)N[C@H](C(=O)N1CCC[C@H]1c1ncc(-c2ccc(-c3ccc4cc(-c5cnc([C@@H]6CCCN6C(=O)[C@@H](NC(=O)OC)C6CCCC6)[nH]5)ccc4c3)cc2)[nH]1)C1CCCC1` [compound 172]: the EC50 is less than 1 nM.

Regarding `CC[C@H](NC(=O)OC)C(=O)N1CCC[C@H]1c1ncc(-c2ccc(-c3ccc4cc(-c5cnc([C@@H]6CCCN6C(=O)[C@H](CC)NC(=O)OC)[nH]5)ccc4c3)cc2)[nH]1` [compound 173], the EC50 is less than 1 nM.

Consider `COC(=O)N[C@H](C(=O)N1CCC[C@H]1c1ncc(-c2ccc3cc(-c4ccc5nc([C@@H]6CCCN6C(=O)[C@@H](NC(=O)OC)C(C)C)[nH]c5c4)ccc3c2)[nH]1)C(C)C` [compound 174], for which the EC50 was less than 1 nM.

Regarding `COC(=O)N[C@H](C(=O)N1CCC[C@H]1c1ncc(-c2ccc3cc(-c4ccc5nc([C@@H]6CCCN6C(=O)[C@@H](NC(=O)OC)[C@@H](C)O)[nH]c5c4)ccc3c2)[nH]1)[C@@H](C)O` [compound 175], the EC50 is less than 1 nM.

In the case of `COC(=O)N[C@H](C(=O)N1CCC[C@H]1c1ncc(-c2ccc3cc(-c4ccc5nc([C@@H]6CCCN6C(=O)[C@@H](NC(=O)OC)[C@@H](C)OC)[nH]c5c4)ccc3c2)[nH]1)[C@@H](C)OC` [compound 176], the EC50 is less than 1 nM.

Consider `COC(=O)N[C@H](C(=O)N1CCC[C@H]1c1ncc(-c2ccc3cc(-c4ccc5nc([C@@H]6CCCN6C(=O)[C@@H](c6ccccc6)N(C)C)[nH]c5c4)ccc3c2)[nH]1)C(C)C` [compound 177], for which the EC50 is less than 1 nM.

In the case of `COC(=O)N[C@H](C(=O)N1CCC[C@H]1c1nc2ccc(-c3ccc4cc(-c5cnc([C@@H]6CCCN6C(=O)[C@@H](c6ccccc6)N6CCCC6)[nH]5)ccc4c3)cc2[nH]1)C(C)C` [compound 178], the EC50 was less than 1 nM.

For `COC(=O)N[C@H](C(=O)N1CCC[C@H]1c1nc2ccc(-c3ccc4cc(-c5cnc([C@@H]6CCCN6C(=O)[C@H](NC(=O)OC)c6ccccc6)[nH]5)ccc4c3)cc2[nH]1)C(C)C` [compound 179], the EC50 was less than 1 nM.

Consider `COC(=O)N[C@H](C(=O)N1CCC[C@H]1c1ncc(-c2ccc3cc(-c4ccc5nc([C@@H]6CCCN6C(=O)[C@@H](c6ccccc6)N6CCCC6)[nH]c5c4)ccc3c2)[nH]1)C(C)C` [compound 180], for which the EC50 was less than 1 nM.

Turning to `COC(=O)N[C@H](C(=O)N1CCC[C@H]1c1ncc(-c2ccc3cc(-c4ccc5nc([C@@H]6CCCN6C(=O)[C@H](NC(=O)OC)c6ccccc6)[nH]c5c4)ccc3c2)[nH]1)C(C)C` [compound 181], the EC50 is less than 1 nM.

For the compound `COC(=O)N[C@H](C(=O)N1CCC[C@H]1c1nc2ccc(-c3ccc4cc(-c5cnc([C@@H]6CCCN6C(=O)[C@@H](c6ccccc6)N(C)C)[nH]5)ccc4c3)cc2[nH]1)C(C)C` [compound 182], the EC50 is less than 1 nM.

In the case of `COC(=O)N[C@H](C(=O)N1CCC[C@H]1c1nc2ccc(-c3ccc4cc(-c5cnc([C@@H]6CCCN6C(=O)[C@H](NC(=O)N6CC[C@H](O)C6)c6ccccc6)[nH]5)ccc4c3)cc2[nH]1)C(C)C` [compound 183], the EC50 is less than 1 nM.

For the compound `COC(=O)N[C@H](C(=O)N1CCC[C@H]1c1ncc(-c2ccc3cc(-c4ccc5nc([C@@H]6CCCN6C(=O)[C@H](NC(=O)N6CC[C@H](O)C6)c6ccccc6)[nH]c5c4)ccc3c2)[nH]1)C(C)C` [compound 185], the EC50 is less than 1 nM.

As for `CNC(=O)N[C@@H](C(=O)N1CCC[C@H]1c1ncc(-c2ccc3cc(-c4ccc5nc([C@@H]6CCCN6C(=O)[C@@H](NC(=O)OC)C(C)C)[nH]c5c4)ccc3c2)[nH]1)c1ccccc1` [compound 186], the EC50 is less than 1 nM.

As for `COC(=O)N[C@H](C(=O)N1CCC[C@H]1c1ncc(-c2cnc3cc(-c4ccc5nc([C@@H]6CCCN6C(=O)[C@@H](NC(=O)OC)C(C)C)[nH]c5c4)ccc3c2)[nH]1)C(C)C` [compound 187], the EC50 was less than 1 nM.

Take `COC(=O)N[C@H](C(=O)N1CCC[C@H]1c1ncc(-c2cnc3cc(-c4ccc5nc([C@@H]6CCCN6C(=O)[C@H](NC(=O)OC)c6ccccc6)[nH]c5c4)ccc3c2)[nH]1)C(C)C` [compound 188]: the EC50 fell in the range of 1 to 9.9 nM.

In the case of `COC(=O)N[C@H](C(=O)N1CCC[C@H]1c1ncc(-c2ccc3cc(-c4ccc5nc([C@@H]6CCCN6C(=O)[C@@H](NC(=O)OC)C6CCOCC6)[nH]c5c4)ccc3c2)[nH]1)C(C)C` [compound 189], the EC50 was less than 1 nM.

As to `COC(=O)N[C@H](C(=O)N1CCC[C@H]1c1nc2ccc(-c3ccc4cc(-c5cnc([C@@H]6CCCN6C(=O)[C@@H](NC(=O)OC)C6CCOCC6)[nH]5)ccc4c3)cc2[nH]1)C(C)C` [compound 190], the EC50 is less than 1 nM.

Regarding `COC(=O)N[C@H](C(=O)N1CCC[C@H]1c1nc2ccc(-c3ccc4cc(-c5cnc([C@@H]6CCCN6C(=O)[C@@H](NC(=O)OC)C6CCOCC6)[nH]5)cnc4c3)cc2[nH]1)C(C)C` [compound 191], the EC50 was less than 1 nM.

In the case of `COC(=O)N[C@H](C(=O)N1CCC[C@H]1c1ncc(-c2cnc3cc(-c4ccc5nc([C@@H]6CCCN6C(=O)[C@@H](NC(=O)OC)C6CCOCC6)[nH]c5c4)ccc3c2)[nH]1)C(C)C` [compound 192], the EC50 was less than 1 nM.

Take `COC(=O)N[C@H](C(=O)N1CCC[C@H]1c1ncc(-c2ccc3nc(-c4ccc5nc([C@@H]6CCCN6C(=O)[C@@H](NC(=O)OC)C(C)C)[nH]c5c4)ccc3c2)[nH]1)C(C)C` [compound 193]: the EC50 was less than 1 nM.

Consider `COC(=O)N[C@H](C(=O)N1CCC[C@H]1c1nc2ccc(-c3ccc4cc(-c5cnc([C@@H]6CCCN6C(=O)[C@@H](NC(=O)OC)C6CCOCC6)[nH]5)ccc4n3)cc2[nH]1)C(C)C` [compound 194], for which the EC50 is less than 1 nM.

As to `COC(=O)N[C@H](C(=O)N1CCC[C@H]1c1nc2ccc(-c3ccc4cc(-c5cnc([C@@H]6CCCN6C(=O)[C@H](NC(=O)OC)c6ccccc6)[nH]5)cnc4c3)cc2[nH]1)C(C)C` [compound 195], the EC50 was less than 1 nM.

In the case of `COC(=O)N[C@H](C(=O)N1CCC[C@H]1c1nc2ccc(-c3ccc4cc(-c5cnc([C@@H]6CCCN6C(=O)[C@H](NC(=O)OC)c6ccccc6)[nH]5)ccc4n3)cc2[nH]1)C(C)C` [compound 196], the EC50 was less than 1 nM.

On to `COC(=O)N[C@H](C(=O)N1CCC[C@H]1c1ncc(-c2ccc3nc(-c4ccc5nc([C@@H]6CCCN6C(=O)[C@H](NC(=O)OC)c6ccccc6)[nH]c5c4)ccc3c2)[nH]1)C(C)C` [compound 197], for which the EC50 was less than 1 nM.

On to `COC(=O)N[C@H](C(=O)N1CCC[C@H]1c1ncc(-c2ccc3cc(-c4ccc5nc([C@@H]6CCCN6C(=O)[C@@H](NC(=O)OC)C(C)C)[nH]c5n4)ccc3c2)[nH]1)C(C)C` [compound 198], for which the EC50 was less than 1 nM.

For `COC(=O)N[C@H](C(=O)N1CCC[C@H]1c1ncc(-c2ccc3cc(-c4ccc5nc([C@@H]6CCCN6C(=O)[C@H](NC(=O)OC)c6ccccc6)[nH]c5n4)ccc3c2)[nH]1)C(C)C` [compound 199], the EC50 was less than 1 nM.

For `COC(=O)N[C@H](C(=O)N1CCC[C@H]1c1nc2ccc(-c3ccc4cc(-c5cnc([C@@H]6CCCN6C(=O)[C@H](NC(=O)OC)c6ccccc6)[nH]5)ccc4c3)nc2[nH]1)C(C)C` [compound 200], the EC50 is less than 1 nM.

As for `COC(=O)N[C@H](C(=O)N1CCC[C@H]1c1nc2ccc(-c3ccc4cc(-c5cnc([C@@H]6CCCN6C(=O)[C@@H](NC(=O)OC)C6CCOCC6)[nH]5)ccc4c3)nc2[nH]1)C(C)C` [compound 201], the EC50 is less than 1 nM.

For `COC(=O)N[C@H](C(=O)N1CCC[C@H]1c1ncc(-c2ccc3cc(-c4ccc5nc([C@@H]6CCCN6C(=O)[C@@H](NC(=O)OC)C6CCOCC6)[nH]c5n4)ccc3c2)[nH]1)C(C)C` [compound 202], the EC50 was less than 1 nM.

As to `COC(=O)N[C@H](C(=O)N1CCC[C@H]1c1ncc(-c2ccc3cc(-c4ccc5nc([C@@H]6CCCN6C(=O)[C@@H](NC(=O)OC)C6CCOCC6)[nH]c5c4)ccc3c2)[nH]1)C1CCOCC1` [compound 203], the EC50 is less than 1 nM.

For `COC(=O)N[C@H](C(=O)N1CCC[C@H]1c1ncc(-c2ccc3cc(-c4ccc5nc([C@@H]6CCCN6C(=O)[C@@H](NC(=O)OC)C(C)C)[nH]c5c4)ncc3c2)[nH]1)C(C)C` [compound 204], the EC50 was less than 1 nM.

`COC(=O)N[C@H](C(=O)N1CCC[C@H]1c1ncc(-c2ccc3cc(-c4ccc5nc([C@@H]6CCCN6C(=O)[C@@H](NC(=O)OC)C6CCOCC6)[nH]c5n4)ccc3c2)[nH]1)C1CCOCC1` [compound 205]: the EC50 was less than 1 nM.

As for `COC(=O)N[C@H](C(=O)N1CCC[C@H]1c1ncc(-c2ccc3nc(-c4ccc5nc([C@@H]6CCCN6C(=O)[C@@H](NC(=O)OC)C6CCOCC6)[nH]c5c4)ccc3c2)[nH]1)C1CCOCC1` [compound 206], the EC50 is 1 to 9.9 nM.

With `COC(=O)N[C@H](C(=O)N1CCC[C@H]1c1ncc(-c2cccc3c(-c4ccc5nc([C@@H]6CCCN6C(=O)[C@@H](NC(=O)OC)C(C)C)[nH]c5c4)cccc23)[nH]1)C(C)C` [compound 207], the EC50 is less than 1 nM.
